In the NIST ThermoML archive (doi:10.1021/je050509f):
± gives the expanded uncertainty stated by the source.

Assay: mn = molality of the nth substance listed, in mol/kg
Settings: Liquid, Vibrating tube method

[Cl-].[Cl-].[Zn+2] [zinc chloride] + CO
Settings | mass density [kg/m3]
298.27 K, 170 kPa, m1 = 0.8018 | 861.37 ± 0.42
298.27 K, 188 kPa, m1 = 0.4768 | 833.84 ± 0.42
298.27 K, 200 kPa, m1 = 5.367 | 1205.67 ± 0.43
298.27 K, 203 kPa, m1 = 1.039 | 881.26 ± 0.42
298.27 K, 205 kPa, m1 = 0.1348 | 801.32 ± 0.43
298.27 K, 205 kPa, m1 = 1.977 | 959.59 ± 0.42
298.27 K, 4983 kPa, m1 = 5.367 | 1209.53 ± 0.44
298.27 K, 4985 kPa, m1 = 1.039 | 885.56 ± 0.42
298.27 K, 4994 kPa, m1 = 0.4768 | 838 ± 0.43
298.27 K, 4996 kPa, m1 = 0.8018 | 865.98 ± 0.43
298.27 K, 5004 kPa, m1 = 0.1348 | 805.97 ± 0.44
298.27 K, 5014 kPa, m1 = 1.977 | 963.97 ± 0.42
298.27 K, 9992 kPa, m1 = 5.367 | 1213.48 ± 0.46
298.27 K, 9995 kPa, m1 = 0.8018 | 870.53 ± 0.43
298.27 K, 9996 kPa, m1 = 1.977 | 968.35 ± 0.42
298.27 K, 9997 kPa, m1 = 1.039 | 889.93 ± 0.43
298.27 K, 10000 kPa, m1 = 0.1348 | 810.57 ± 0.45
298.27 K, 10004 kPa, m1 = 0.4768 | 841.99 ± 0.44
298.27 K, 14982 kPa, m1 = 0.4768 | 845.9 ± 0.45
298.27 K, 14987 kPa, m1 = 1.039 | 894.12 ± 0.43
298.27 K, 14995 kPa, m1 = 5.367 | 1217.3 ± 0.47
298.27 K, 14997 kPa, m1 = 1.977 | 972.58 ± 0.42
298.27 K, 15000 kPa, m1 = 0.8018 | 874.88 ± 0.44
298.27 K, 15010 kPa, m1 = 0.1348 | 814.96 ± 0.46
298.27 K, 19985 kPa, m1 = 1.039 | 898.15 ± 0.44
298.27 K, 19988 kPa, m1 = 5.367 | 1221.03 ± 0.5
298.27 K, 19989 kPa, m1 = 1.977 | 976.63 ± 0.42
298.27 K, 20001 kPa, m1 = 0.8018 | 879.03 ± 0.44
298.27 K, 20007 kPa, m1 = 0.1348 | 819.13 ± 0.47
298.27 K, 20018 kPa, m1 = 0.4768 | 849.66 ± 0.46
298.27 K, 24988 kPa, m1 = 0.8018 | 883.01 ± 0.45
298.27 K, 24993 kPa, m1 = 1.977 | 980.56 ± 0.42
298.27 K, 24996 kPa, m1 = 5.367 | 1224.68 ± 0.52
298.27 K, 24999 kPa, m1 = 0.1348 | 823.11 ± 0.48
298.27 K, 25003 kPa, m1 = 1.039 | 902.02 ± 0.44
298.27 K, 25032 kPa, m1 = 0.4768 | 853.57 ± 0.47
298.27 K, 29990 kPa, m1 = 1.977 | 984.35 ± 0.42
298.27 K, 29994 kPa, m1 = 5.367 | 1228.21 ± 0.55
298.27 K, 30002 kPa, m1 = 0.1348 | 826.95 ± 0.5
298.27 K, 30004 kPa, m1 = 0.4768 | 857.56 ± 0.48
298.27 K, 30004 kPa, m1 = 0.8018 | 886.87 ± 0.46
298.27 K, 30007 kPa, m1 = 1.039 | 905.8 ± 0.45
298.27 K, 34983 kPa, m1 = 1.039 | 909.4 ± 0.45
298.27 K, 34992 kPa, m1 = 0.8018 | 890.56 ± 0.47
298.27 K, 34993 kPa, m1 = 0.1348 | 830.61 ± 0.51
298.27 K, 34993 kPa, m1 = 0.4768 | 862.15 ± 0.49
298.27 K, 34996 kPa, m1 = 5.367 | 1231.68 ± 0.58
298.27 K, 35014 kPa, m1 = 1.977 | 988.04 ± 0.42
298.27 K, 39991 kPa, m1 = 1.039 | 912.9 ± 0.46
298.27 K, 39994 kPa, m1 = 1.977 | 991.58 ± 0.42
298.27 K, 39994 kPa, m1 = 5.367 | 1235.1 ± 0.62
298.27 K, 39997 kPa, m1 = 0.4768 | 866.01 ± 0.5
298.27 K, 39997 kPa, m1 = 0.8018 | 894.15 ± 0.47
298.27 K, 40006 kPa, m1 = 0.1348 | 834.16 ± 0.53
323.24 K, 207 kPa, m1 = 0.4768 | 808.23 ± 0.43
323.24 K, 209 kPa, m1 = 0.1348 | 777.17 ± 0.43
323.24 K, 209 kPa, m1 = 5.367 | 1172.87 ± 0.43
323.24 K, 220 kPa, m1 = 1.039 | 855.22 ± 0.42
323.24 K, 230 kPa, m1 = 1.977 | 931.65 ± 0.42
323.24 K, 233 kPa, m1 = 0.8018 | 835.94 ± 0.42
323.24 K, 4983 kPa, m1 = 0.8018 | 841.09 ± 0.43
323.24 K, 4985 kPa, m1 = 0.4768 | 813.47 ± 0.43
323.24 K, 4990 kPa, m1 = 0.1348 | 782.51 ± 0.44
323.24 K, 4993 kPa, m1 = 1.977 | 936.57 ± 0.42
323.24 K, 4994 kPa, m1 = 1.039 | 860.28 ± 0.43
323.24 K, 4999 kPa, m1 = 5.367 | 1177.21 ± 0.44
323.24 K, 9985 kPa, m1 = 1.977 | 941.48 ± 0.42
